The values below come from patent US10981932B2, “Macrocyclic indole derivatives” (Bayer Aktiengesellschaft, priority 2016, dated 2021).

For data set [1], the system named is SUDHL10. The experiment in a line: Induction of caspase-3/7 activity (Caspase-Glo 3/7), SUDHL10. It is filed as cell-based. Particulars: caspase-3/7 induction, SUDHL10 cells, 3 h treatment, median. Summed up:
(§1)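 DLBCL lines SUDHL5 and SUDHL10 treated with compounds for 3 h at 37 °C; caspase-3/7 activity read by Caspase-Glo 3/7 luminescence. Medium-only background subtracted; EC50 fitted with bottom fixed at 1 and top fixed at the reference compound's maximal induction.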

Data set [2] concerns SUDHL5. The experiment in a line: Induction of cytotoxicity (CellTiter-Glo, 5 h), SUDHL5.
For another data set, the system named is MV-4-11. The experiment in a line: Anti-proliferative effect (CellTiter-Glo, 72 h), MV-4-11. The class given is cell-based. Particulars: MV-4-11 cells, median, read-out: IC50 antiproliferation assay MV-4-11 [M] (median). The protocol:
Assessment of the Anti-Proliferative Effect of Compounds in Different Cell Lines
The impact of compounds on the proliferation of different cell lines was assessed using the CellTiter-Glo® Luminescent Cell Viability reagent from Promega (G7573). Of note, SUDHL10 and SUDHL5 (DLBCL), NCI-H929 (Multiple Myeloma), A2780 (ovarian carcinoma) as well as MV-4-11(AML) cells are sensitive to MCL-1 inhibition.
In parallel, cells were plated in a reference (day 0) plate for time zero determination.
Rim wells were excluded. The cells were incubated for 72 h hours in a humidified incubator at 37° C. The day 0 plate was measured by adding 30 μl/well of CTG solution (CellTiter-Glo® Luminescent Cell Viability reagent, Promega G7573) to time zero wells in the reference plate followed by a 10 minutes incubation and luminescence reading at 0.1 ms, using the PHERAstar FS microplate reader (BMG Labtech).
After 72 h incubation, the treated plates were measured in the same way as the day 0 plate mentioned above.

For data set [3], the system named is SUDHL5. The experiment in a line: Induction of caspase-3/7 activity (Caspase-Glo 3/7), SUDHL5. It is filed as cell-based. The conditions noted are these: caspase-3/7 induction, SUDHL5 cells, 3 h treatment, median. Summed up: as §1
Data set [4] concerns SUDHL5. The experiment in a line: Anti-proliferative effect (CellTiter-Glo, 72 h), SUDHL5. The class given is cell-based. The conditions noted are these: SUDHL5 cells, antiproliferation, 72 h incubation, median, read-out: Antiproli SUDHL5 [M] (median). The method, boiled down:
(§2)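 Cells plated and incubated with compounds for 72 h at 37 °C, with a parallel day 0 reference plate for time-zero signal. Viability read by CellTiter-Glo luminescence after 10 min, measured identically on the day 0 and 72 h plates.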

A further data set concerns the target MCL-1 (Homo sapiens, UniProt Q07820). The experiment in a line: Protein-protein interaction assay MCL-1/Noxa BH3 peptide (MCL-1 assay), TR-FRET. It is filed as binding. The conditions noted are these: MBP-MCL-1 / Noxa BH3-derived peptide, median. The method, boiled down:
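IC50 came from a 4-parameter fit of the normalized 665/620 nm TR-FRET ratio (anti-MBP Eu-cryptate/streptavidin-XL665). Compounds (0.1 nM–20 μM, duplicates) were preincubated 10 min at 22 °C with 1 nM MBP-MCL-1 in pH 7 Tris/NaCl/KF buffer, then read after 1 h at 22 °C plus overnight at 4 °C.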

The test system of a further data set is A2780. The experiment in a line: Anti-proliferative effect (CellTiter-Glo, 72 h), A2780. Particulars: A2780 cells, median, read-out: IC50 antiproliferation assay A2780 [M] (median). The class given is cell-based. The method, boiled down:
as §2

In data set [5] the test system is SUDHL10. The experiment in a line: Induction of cytotoxicity (CellTiter-Glo, 5 h), SUDHL10.
The mark [6] stands for this setting: Homo sapiens, SU-DHL-5, 5 h, read-out: Cytotox SUDHL5 [M] (median), SUDHL5 cells, cytotoxicity induction, CellTiter-Glo, 5 h incubation, median.
Setting [7] is: Homo sapiens, SU-DHL10, 5 h, read-out: Cytotox SUDHL10 [M] (median), SUDHL10 cells, cytotoxicity induction, CellTiter-Glo, 5 h incubation, median.
The mark [8] stands for this setting: read-out: Cytotox SUDHL10 [M] (median), SUDHL10 cells, cytotoxicity induction, CellTiter-Glo, 5 h incubation, median.
Where [9] appears, read: read-out: Cytotox SUDHL5 [M] (median), SUDHL5 cells, cytotoxicity induction, CellTiter-Glo, 5 h incubation, median.
[10] abbreviates: read-out: Cytotox SUDHL5 [M] (median), SUDHL5 cells, cytotoxicity induction, CellTiter-Glo, 5 h, median.
The mark [11] stands for this setting: read-out: Cytotox SUDHL10 [M] (median), SUDHL10 cells, cytotoxicity induction, CellTiter-Glo, 5 h, median.

Read-outs that look alike come from different tables or passages of the source.

Chain of MCL-1 (Q07820 whole entry): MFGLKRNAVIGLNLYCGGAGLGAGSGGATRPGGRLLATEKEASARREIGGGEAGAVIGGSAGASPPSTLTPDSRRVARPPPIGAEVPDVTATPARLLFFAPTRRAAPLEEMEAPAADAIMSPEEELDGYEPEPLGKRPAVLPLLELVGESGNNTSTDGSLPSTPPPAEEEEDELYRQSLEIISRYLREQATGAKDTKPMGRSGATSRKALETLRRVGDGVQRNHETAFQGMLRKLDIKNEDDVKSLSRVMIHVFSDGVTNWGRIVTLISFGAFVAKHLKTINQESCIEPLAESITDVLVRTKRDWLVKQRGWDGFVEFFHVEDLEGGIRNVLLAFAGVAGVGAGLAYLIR

Consider `CN1CCCCn2c(C(=O)O)c(CCCOc3cccc4ccccc34)c3cccc(c32)-c2c(CC(F)(F)F)nn(C)c2C1` (racemic) [Example 222, (rac)-1,14-dimethyl-7-[3-(naphthalen-1-yloxy)propyl]-3-(2,2,2-trifluoroethyl)-10,11,12,13,14,15-hexahydro-1H-pyrazolo[3′,4′:8,9][1,6]diazacycloundecino[10,11,1-hi]indole-8-carboxylic Acid], for which the EC50 with SUDHL10 [1] (Homo sapiens, SU-DHL10, 3 h) was 18.2 µM; in the data set on SUDHL5 [3] (Homo sapiens, SU-DHL-5, 3 h), 14.4 µM. Further, the IC50 in the data set with SUDHL5 [2] (setting [6]) turned out to be 1.15e-05 M; with MV-4-11 (Homo sapiens, MV4-11, 72 h), 7.87e-06 M; in the data set with SUDHL5 [4] (Homo sapiens, SU-DHL-5, 72 h), 9.85e-06 M; on MCL-1, 0.00597 µM; in the data set on A2780 (Homo sapiens, A2780, 72 h) it was 2.46e-05 M; in the data set on SUDHL10 [5] (setting [7]), 2.01e-05 M.
For `CN1CCCCn2c(C(=O)O)c(CCCOc3cccc4ccccc34)c3cccc(c32)-c2c(/C=C/F)nn(C)c2C1` (racemic) [Example 225, (rac)-3-[(E)-2-fluoroethenyl]-1,14-dimethyl-7-[3-(naphthalen-1-yloxy)propyl]-10,11,12,13,14,15-hexahydro-1H-pyrazolo[3′,4′:8,9][1,6]diazacycloundecino[10,11,1-hi]indole-8-carboxylic Acid], the EC50 was 19.6 µM in the data set with SUDHL10 [1] (Homo sapiens, SU-DHL10, 3 h); above 33 µM in the data set on SUDHL10 [1]; 16.5 µM in the data set with SUDHL5 [3] (Homo sapiens, SU-DHL-5, 3 h). Further, the IC50 in the data set on SUDHL5 [2] (setting [6]) was 1.32e-05 M; in the data set with MV-4-11 (Homo sapiens, MV4-11, 72 h), 1.85e-05 M; in the data set with SUDHL5 [4] (Homo sapiens, SU-DHL-5, 72 h) it was 7.21e-06 M; at MCL-1, 0.0032 µM; in the data set with A2780 (Homo sapiens, A2780, 72 h) it was 2.33e-05 M; with SUDHL10 [5] (setting [7]), 3.27e-05 M. Moreover, the IC50 with SUDHL10 [5] (setting [8]) is above 3.3e-05 M.
Turning to `CCc1nn(C)c2c1-c1c(C)ccc3c(C(C)CCOc4cccc5cc(F)ccc45)c(C(=O)O)n(c13)CCCCOC2` (single isomer, unassigned) [Example 265, 3-ethyl-7-{4-[(6-fluoronaphthalen-1-yl)oxy]butan-2-yl}-1,4-dimethyl-1,10,11,12,13,15-hexahydropyrazolo[4′,3′:9,10][1,6]oxazacycloundecino[8,7,6-hi]indole-8-carboxylic Acid], the EC50 with SUDHL10 [1] was determined as 10.1 µM; in the data set on SUDHL5 [3], 2.71 µM. Moreover, the IC50 with SUDHL5 [2] (setting [9]) came to 2.09e-06 M; in the data set with MV-4-11 (Homo sapiens, MV4-11, 72 h), 2.75e-06 M; in the data set with SUDHL5 [4], 2.58e-06 M; on MCL-1, 0.00585 µM; in the data set with SUDHL10 [5] (setting [8]), 7.35e-06 M.
In the case of `CN1CCCn2c(C(=O)O)c(CCCOc3cccc4ccccc34)c3cccc(c32)-c2c(nn(C)c2COc2ccc(N3CCN(S(=O)(=O)N(C)C)CC3)cc2)C1` (single isomer, unassigned; enantiomer 1) [Example 1-112, 11-({4-[4-(Dimethylsulfamoyl)piperazin-1-yl)phenoxy]methyl}-7,10-dimethyl-1-[3-(1-naphthyloxy)propyl]-4,5,6,7,8,10-hexahydropyrazolo[3′,4′:7,8][1,5]diazecino[9,10,1-hi]indole-2-carboxylic Acid (Enantiomer 1)], the EC50 in the data set on SUDHL10 [1] turned out to be 3.34 µM; in the data set with SUDHL5 [3], 2.32 µM. Moreover, the IC50 in the data set with SUDHL5 [2] (setting [9]) amounted to 3.3e-06 M; in the data set on MV-4-11, 2.69e-06 M; in the data set with SUDHL5 [4] it was 2.72e-06 M; on MCL-1, 0.012 µM; in the data set on SUDHL10 [5] (setting [8]) it was 5.46e-06 M.
Regarding `CCc1nn(C)c2c1-c1cccc3c(CCCOc4cccc5cc(C(F)(F)F)ccc45)c(C(=O)O)n(c13)CCCCOC2` (single isomer, unassigned; enantiomer 1) [Example 314, 3-ethyl-1-methyl-7-(3-{[6-(trifluoromethyl)naphthalen-1-yl]oxy}propyl)-1,10,11,12,13,15-hexahydropyrazolo[4′,3′:9,10][1,6]oxazacycloundecino[8,7,6-hi]indole-8-carboxylic Acid (Enantiomer 1)], the EC50 in the data set with SUDHL10 [1] (Homo sapiens, SU-DHL10, 3 h) is above 33 µM; in the data set with SUDHL5 [3] (Homo sapiens, SU-DHL-5, 3 h) it was above 33 µM. Moreover, the IC50 in the data set with SUDHL5 [2] (Homo sapiens, SU-DHL-5, 5 h, read-out: Cytotox SUDHL5 [M] (median), SUDHL5 cells, cytotoxicity induction, CellTiter-Glo, 5 h, median) came to 1.56e-05 M; in the data set with MV-4-11 (Homo sapiens, MV4-11, 72 h), 1.35e-05 M; against MCL-1, 0.0335 µM; in the data set on A2780 (Homo sapiens, A2780, 72 h), 1.56e-05 M; in the data set with SUDHL10 [5] (Homo sapiens, SU-DHL10, 5 h, read-out: Cytotox SUDHL10 [M] (median), SUDHL10 cells, cytotoxicity induction, CellTiter-Glo, 5 h, median), 2.09e-05 M.
For `CN1CCCn2c(C(=O)O)c(CCCOc3cccc4ccccc34)c3cccc(c32)-c2c(nn(C)c2COc2ccc(N3CCN(S(=O)(=O)N(C)C)CC3)cc2)C1` (single isomer, unassigned; enantiomer 2) [Example 1-113, 11-({4-[4-(Dimethylsulfamoyl)piperazin-1-yl]phenoxy}methyl)-7,10-dimethyl-1-[3-(1-naphthyloxy)propyl]-4,5,6,7,8,10-hexahydropyrazolo[3′,4′:7,8][1,5]diazecino[9,10,1-hi]indole-2-carboxylic Acid (Enantiomer 2)], the EC50 in the data set with SUDHL10 [1] came out at 9.08 µM; in the data set with SUDHL5 [3], 10.5 µM. Moreover, the IC50 in the data set on SUDHL5 [2] (setting [9]) is 1.31e-05 M; in the data set with MV-4-11, 1.2e-05 M; with SUDHL5 [4], 1.05e-05 M; against MCL-1 it was 0.0277 µM; with SUDHL10 [5] (setting [8]), 2.06e-05 M.
`Cc1ccc2c(OCCCc3c(C(=O)O)n4c5c(cccc35)-c3c(nn(C)c3C)COCCCC4)cccc2c1` (single isomer, unassigned; enantiomer 2) [Example 309, 2,3-dimethyl-7-{3-[(6-methylnaphthalen-1-yl)oxy]propyl}-2,10,11,12,13,15-hexahydropyrazolo[4′3′:9,10][1,6]oxazacycloundecino[8,7,6-hi]indole-8-carboxylic Acid (Enantiomer 2)]: the EC50 in the data set with SUDHL10 [1] and with SUDHL5 [3] was above 33 µM each time. The IC50 in the data set on SUDHL5 [2] (setting [10]) is above 3.3e-05 M; in the data set on MV-4-11, above 3.3e-05 M; on MCL-1, 0.133 µM; in the data set with A2780 it was above 3.3e-05 M; in the data set with SUDHL10 [5] (setting [11]), above 3.3e-05 M.
For `CCc1nn(C)c2c1-c1cccc3c(CCCOc4cccc5cc(C(F)(F)F)ccc45)c(C(=O)O)n(c13)CCCCOC2` (single isomer, unassigned; enantiomer 2) [Example 315, 3-ethyl-1-methyl-7-(3-{[6-(trifluoromethyl)naphthalen-1-yl]oxy}propyl)-1,10,11,12,13,15-hexahydropyrazolo[4′,3′:9,10][1,6]oxazacycloundecino[8,7,6-hi]indole-8-carboxylic Acid (Enantiomer 2)], the values for the EC50 in the data set on SUDHL10 [1] and with SUDHL5 [3] were 20.1 µM and above 33 µM, respectively. Moreover, the IC50 in the data set with SUDHL5 [2] (setting [10]) was 1.48e-05 M; with MV-4-11 it was 1.16e-05 M; at MCL-1 it was 0.919 µM; with A2780, 8.63e-06 M; with SUDHL10 [5] (setting [11]), 1.58e-05 M.
